Where two headings read alike, the source gives them in different places. Marks after values point to notes of the source that are not given here.
Assays:
LRD7Ta = assay: qRT-PCR of LRD7Ta expression in GA pretreated P76 roots; type: in vivo, wheat
Source text: FIG. 13 is data showing that gibberellins (GA) regulate lateral root formation in wheat. Panel (a) is a graph showing GA1 levels in P76 and TL roots in WW and LW conditions (mean±sd, n=30). “a” represents differences between WW and LW for a genotype and “b” represents significant genotypic differences under LW (p<0.05). Panel (b) is a graph showing expression of Agropyron allele of LRD7 (LRD7Ag) in the TL line in WW and LW conditions, with and without GA3 treatment. Transcript abundance was measured relative to WW, non-GA3 treated sample (mean±sd, n=3). “a” represents significant differences between WW and LW for roots with GA3 and no GA3 treatment, “b” represents a significant difference in response to GA treatment (p<0.05). […] “a” represents significant differences between WW and LW for a genotype and “b” represents significant genotypic differences in LW conditions (p<0.05). […] The “a” represents significance between WW and LW and “b” indicates significance between CBO37 and RNAi or OE events or between P76 and TL under LW (p<0.05).
(§1) We used SuperScript VILO to synthesize cDNA for semi- and real-time quantitative PCR (qPCR) (Invitrogen Corp., Carlsbad, Calif.). […] Crossing point value (Cp or Ct), which was the point at which the fluorescence crosses the threshold, and melting curve analyses were obtained using the LightCycler Roche 480 Software v1.5. […]

LRD7Ag = assay: qRT-PCR of LRD7Ag root transcript in GA pretreated TL seedlings; type: in vivo, wheat; details: GA pretreated TL seedlings in LW
Source text: FIG. 13 is data showing that gibberellins (GA) regulate lateral root formation in wheat. Panel (a) is a graph showing GA1 levels in P76 and TL roots in WW and LW conditions (mean±sd, n=30). “a” represents differences between WW and LW for a genotype and “b” represents significant genotypic differences under LW (p<0.05). Panel (b) is a graph showing expression of Agropyron allele of LRD7 (LRD7Ag) in the TL line in WW and LW conditions, with and without GA3 treatment. Transcript abundance was measured relative to WW, non-GA3 treated sample (mean±sd, n=3). “a” represents significant differences between WW and LW for roots with GA3 and no GA3 treatment, “b” represents a significant difference in response to GA treatment (p<0.05). […] Expression values were obtained relative to WW, non-GA3 treated sample as control (mean±sd, n=3). “a” represents significant differences between WW and LW for a genotype and “b” represents significant genotypic differences in LW conditions (p<0.05). […]
as §1

TL and P76 seedlings = assay: Effect of Gibberellin A3 (GA3) on lateral root density of wheat seedlings in WW and LW conditions; type: in vivo; details: for Lateral Root (PR) / Lateral Root Density / Primary Root Length: mean ± s.d., n = 30
Source text: (§2) For the early seedling stage root screening we used the cigar roll method (Zhu et al., 2006, TAG, 113:1-10). Similar sized seeds were germinated in a petri dish with moist paper towel for three days in the dark at 22-2S° C. Three seedlings per genotype were placed between two sheets of germination paper and rolled vertically. Three batches of 10 cigar rolls, totaling 30 plants per genotype were soaked in tap water and placed vertically in 1 L beaker filled with SO mL of water. Seedlings were grown in a controlled environment using a Percival Intellus Control System incubator (Model: I36VLC8) set at 25/27° C., 11.5/12.5 h day/night, 50/70% relative humidity and illumination of 80 μmols m^−2 sec^−1 during the duration of the experiments (Percival Scientific, Inc., Iowa). Water was added to each beaker twice daily to maintain the volume of 50 ml. All measurements were carried until 6 days after germination. Measurements after Day 6 can potentially be affected by limiting seed resources that drive seedling growth. For gene expression experiments, seedlings were harvested at 2, 4 and 6 days after germination. Root tissue samples were collected and snap frozen. It was hypothesized that the differences in biomass and yield between the Agropyron 7DL lines and the corresponding parental genotypes could be due to increased investment in root production, thus increasing acquisition of water and nutrients from the soil. We used a parent line, Pavon76 (P76), the 1-96-1 translocation line (TL), and a negative control (NC) for the translocation event for these experiments (FIG. 1). The total number of lateral roots (>1 mm) on the primary root axis were counted, and lateral root density was calculated by dividing the number of lateral roots on the primary root axis by the primary root length. Statistical significance was determined using a one-way ANOVA using Tukeys method. Transcriptomic comparison of the TL line and P76 indicated the differential regulation of several gibberellic acid associated genes (GSE42214; Table 8). Therefore, we tested the role of GA in lateral root regulation by treating TL and P76 seedlings with 104 GA3 in WW and LW conditions. […] Given the positive impact of exogenous GA on lateral roots, we measured the endogenous GA level in 6 d seedling roots. GA1 decreased in P76 in LW compared to WW (FIG. 13a). […] Higher GA levels in TL than P76 in LW is likely associated with its ability to maintain lateral root growth in LW. Auxin, which promotes lateral root growth, was not deficient in P76 relative to TL in LW, further supporting a GA-dependent mechanism for maintaining lateral root growth in TL (FIG. 21) (Orman-Ligeza et al., 2013, Trends Plant Sci., 18:459-67; Lavenus et al, 2013, Trends Plant Sci., 18:450-8).

P76 and TL seedlings = assay: Effect of GA biosynthesis inhibitor Paclobutrazol (PAC) on lateral root density of wheat seedlings; type: in vivo; details: for Lateral Root Density / Number of Lateral Roots / Primary Root Length: 6 d old seedlings
Source text: as §2

Question: For C=C1C[C@]23C[C@@]1(O)CC[C@H]2[C@@]12C=C[C@H](O)[C@@](C)(C(=O)O1)[C@H]2[C@@H]3C(=O)O [GA3, Gibberellin A3], which “LRD7Ta expression in roots compared to LW (no GA) roots” value (LRD7Ta) is on record?
Answer: down-regulated

Question: What about the “LRD7Ta expression in roots compared to LW (no GA) roots” value (LRD7Ta; listed as GA) of the same compound?
Answer: decreased LRD7Ta expression

Question: And the “Repression of root transcript abundance of LRD7Ag relative to untreated WW control” value (LRD7Ag)?
Answer: 5 fold

Question: And the “Effect of GA treatment on lateral root number and density” value (TL and P76 seedlings; P76, LW)?
Answer: restored lateral root number and density to WW levels

Question: What about the “Lateral Root (PR)” value (TL and P76 seedlings; P76, LW (+GA3)) of the same compound?
Answer: 23 ± 3^b

Question: And the “Lateral Root Density” value (TL and P76 seedlings; P76, LW (+GA3))?
Answer: 0.96 ± 0.1^b cm^−1

Question: And the “Primary Root Length” value (TL and P76 seedlings; P76, LW (+GA3))?
Answer: 23.9 ± 2.2^b cm

Question: What about the “Lateral Root (PR)” value (TL and P76 seedlings; P76, WW (+GA3)) of the same compound?
Answer: 24 ± 4

Question: And the “Lateral Root Density” value (TL and P76 seedlings; P76, WW (+GA3))?
Answer: 0.96 ± 0.1 cm⁻¹

Question: What about the “Primary Root Length” value (TL and P76 seedlings; P76, WW (+GA3)) of the same compound?
Answer: 25.5 ± 2.8 cm

Question: And the “Effect of GA treatment on roots” value (TL and P76 seedlings; P76 and TL, WW conditions)?
Answer: had no effect on roots of either genotype

Question: What about the “Effect of GA treatment on lateral root number and density” value (TL and P76 seedlings; TL, LW) of the same compound?
Answer: increased the TL lateral root number and density under LW to above the untreated values

Question: And the “Lateral Root (PR)” value (TL and P76 seedlings; TL, LW (+GA3))?
Answer: 38 ± 4^b

Question: What about the “Lateral Root Density” value (TL and P76 seedlings; TL, LW (+GA3)) of the same compound?
Answer: 1.44 ± 0.1^b cm^−1

Question: And the “Primary Root Length” value (TL and P76 seedlings; TL, LW (+GA3))?
Answer: 26.4 ± 2.4 cm

Question: What about the “Lateral Root (PR)” value (TL and P76 seedlings; TL, WW (+GA3)) of the same compound?
Answer: 24 ± 5

Question: What about the “Lateral Root Density” value (TL and P76 seedlings; TL, WW (+GA3)) of the same compound?
Answer: 0.89 ± 0.2 cm⁻¹

Question: How did the “Lateral Root Density” value (P76 and TL seedlings; P76, LW (+PAC)) turn out when CC(C)(C)[C@@H](O)[C@@H](Cc1ccc(Cl)cc1)n1cncn1 (racemic) [PAC, Paclobutrazol] was run?
Answer: 0.22 ± 0.1^b cm−1

Question: What about the “Number of Lateral Roots” value (P76 and TL seedlings; P76, LW (+PAC)) of the same compound?
Answer: 5 ± 2^b

Question: What about the “Primary Root Length” value (P76 and TL seedlings; P76, LW (+PAC)) of the same compound?
Answer: 24.2 ± 2.9 cm

Question: And the “Lateral Root Density” value (P76 and TL seedlings; P76, WW (+PAC))?
Answer: 0.45 ± 0.1^b cm−1

Question: What about the “Number of Lateral Roots” value (P76 and TL seedlings; P76, WW (+PAC)) of the same compound?
Answer: 11 ± 2^b

Question: What about the “Primary Root Length” value (P76 and TL seedlings; P76, WW (+PAC)) of the same compound?
Answer: 25.3 ± 3.0 cm

Question: What about the “Lateral Root Density” value (P76 and TL seedlings; TL, LW (+PAC)) of the same compound?
Answer: 0.41 ± 0.1^b cm−1

Question: And the “Number of Lateral Roots” value (P76 and TL seedlings; TL, LW (+PAC))?
Answer: 10 ± 1^b

Question: And the “Primary Root Length” value (P76 and TL seedlings; TL, LW (+PAC))?
Answer: 23.9 ± 2.6 cm

Question: What about the “Lateral Root Density” value (P76 and TL seedlings; TL, WW (+PAC)) of the same compound?
Answer: 0.49 ± 0.1^b cm−1

Question: What about the “Number of Lateral Roots” value (P76 and TL seedlings; TL, WW (+PAC)) of the same compound?
Answer: 11 ± 2^b

Question: What about the “Primary Root Length” value (P76 and TL seedlings; TL, WW (+PAC)) of the same compound?
Answer: 22.7 ± 2.4 cm

Question: And the “Effect on lateral root formation” value (P76 and TL seedlings; both P76 and TL)?
Answer: specifically suppressed lateral root formation

Reference: US10036034B2, “Sequences involved in plant yield and methods of using” (NUtech Ventures, priority 2014, dated 2018)
